From patent US20220354855A1, “TREATMENT FOR GASTROINTESTINAL DISORDERS” (Mayo Foundation for Medical Education and Research, priority 2019, published 2022)

Assays:
[1] = tested on: proximal colon mucosa submucosa preparations from germ free mice; assay: Ussing chamber short circuit current (Isc) in response to CDCA, colon mucosa-submucosa preparations; settings: CDCA applied basolaterally, n=3, Wilcoxon, FIG. 4E
Source text: FIGS. 4A-4E: An integrated metabolomics approach provides mechanistic insight into the effect of gut microbiota metabolism on host physiology. FIG. 4A is a series of graphs plotting the abundance of propionate (left), butyrate (center), and acetate (right) as determined by ^1H NMR using stool samples from healthy, IBS-C, and IBS-D subjects (averaged data per subject, pairwise Mann-Whitney tests). FIG. 4B is a pair of graphs plotting the abundance of tryptophan (left) and tryptamine (right) as determined by LC-MS in stool samples from healthy, IBS-C, and IBS-D subjects (averaged data per subject, pairwise Mann-Whitney tests). FIG. 4C is a series of graphs plotting the abundance of cholic acid (CA, left panel), chenodeoxycholic acid (CDCA, center panel), and deoxycholic acid sulfate (DCA-S, right panel) as determined by ^1H NMR with stool samples from healthy, IBS-C, and IBS-D subjects (mixed linear models correcting for subject). FIG. 4D is a series of graphs plotting the abundance of CA, CDCA, and DCA-S as determined by ^1H NMR using stool samples from healthy, IBS-C, and IBS-D subjects (averaged data per subject, pairwise Mann-Whitney tests). […]
Ussing chamber experiments: Colonic mucosal secretory responses were assessed using Ussing chamber setups. […]

[2] = tested on: colonic biopsies from healthy, IBS-C, and IBS-D subjects; assay: Ussing chamber short circuit current (ΔIsc) in response to serotonin (5-HT), colonic biopsies; design: species or system human; settings: cumulative concentrations of 5-HT applied basolaterally; biopsies from IBS-C patients versus HC; FIG. 3C
Source text: FIGS. 3A-3F: Integrated top-down bottom-up approach provides mechanistic insight into the effect of gut microbiota metabolism on host physiology. FIG. 3A is a series of graphs plotting the abundance of propionate (left), butyrate (center), and acetate (right) as determined by ^1H NMR. The data are shown as mixed linear models correcting for subject in stool samples from healthy, IBS-C, and IBS-D subjects. FIG. 3B is a graph plotting the abundance of acetate in colonic biopsies. FIG. 3C is a graph plotting maximal ΔIsc (Imax) following application of cumulative concentrations of serotonin (5-HT) basolaterally in colonic biopsies from healthy, IBS-C, and IBS-D subjects. FIG. 3D is a graph plotting baseline Isc observed in colonic biopsies from healthy, IBS-C, and IBS-D subjects (P-values are Tukey HSD adjusted from a linear model). FIG. 3E is a pair of graphs plotting the abundance of tryptophan (left) and tryptamine (right) in stool samples from healthy, IBS-C, and IBS-D subjects. […]
Ussing chamber experiments: Colonic mucosal secretory responses were assessed using Ussing chamber setups. […] Short circuit current (Isc) was continuously recorded using Acquire and Analyze software (Physiologic Instruments). ΔIsc values were calculated using Isc measurements before and after application of compounds to the basolateral side and normalized to the tissue area. […]

Structure (SMILES) | Isc in response to CDCA (ΔIsc, Imax) [1] | secretory response (maximal ΔIsc, Imax) to serotonin (5-HT) [2]
C[C@H](CCC(=O)O)[C@H]1CC[C@H]2[C@@H]3[C@H](O)C[C@@H]4C[C@H](O)CC[C@]4(C)[C@H]3CC[C@]12C [CDCA, chenodeoxycholic acid] | significant increase in Isc | 
NCCc1c[nH]c2ccc(O)cc12 [serotonin (5-HT), serotonin] |  | significantly lower than HC
